Test results taken from ChEMBL document CHEMBL1154198, “Chemical genetics of Plasmodium falciparum” (Nature, 2010).

Experiments:
[1] = tested on: Plasmodium falciparum; assay: ST_JUDE: Plasmodium falciparum 3D7 EC50 (uM) as measured by SYBR green dye; format: functional, organism-based
[2] = tested on: Plasmodium falciparum; assay: ST_JUDE: Plasmodium falciparum K1 EC50 (uM) as measured by SYBR green dye; format: functional, organism-based

| SMILES | EC50 [1] [µM] | EC50 [2] [µM] |
| --- | --- | --- |
| CCOC(=O)C(=O)Oc1cc2oc(C(=O)OCC)c(-c3nc4ccccc4s3)c(=O)c2cc1CC | > 15 | > 15 |
| O=C(COc1ccccc1)NC(c1ccc(Cl)cc1)c1cc(Cl)c2cccnc2c1O (stereo unspecified) | 1.83 | 1.68 |
| O=C(Nc1cccc(F)c1)c1cc2ccccc2oc1=O | > 15 | > 15 |
| CCCOc1ccc(-c2nonc2NC(=O)c2cccc(OC)c2)cc1OCCC | 1.16 | 1.21 |
| CN(C)CCn1c(=N)n(CC(O)c2ccc(Cl)c(Cl)c2)c2ccccc21 (stereo unspecified) | 0.638 | 3.01 |
| CCOc1ccc(Nc2cc(C)nc3c(C)cc(C)cc23)cc1 | 3.73 | 6.67 |
| CSc1nc(SC)c2c3c(sc2n1)CN(C)CC3 | 4.16 | 4.75 |
| O=C1CC(c2ccc(O)cc2)C2=C(CC(c3ccccc3Cl)CC2=O)N1 (stereo unspecified) | 2.43 | 1.41 |
| Cc1ccnc(NC(c2ccc(Cl)cc2Cl)c2ccc3cccnc3c2O)c1 (stereo unspecified) | 1.56 | 1.44 |
| Oc1c(C(Nc2ccccn2)c2cccc(Oc3ccccc3)c2)ccc2cccnc12 (stereo unspecified) | 2.92 | 2.76 |
| CN(C)CCNc1nc(Cc2ccccc2)nc2sc3c(c12)CCCC3 | > 15 | > 15 |
| O=C(CSc1nccn1-c1ccc(F)cc1)Nc1cc(C(F)(F)F)ccc1Cl | 2.96 | 4.11 |
| CCOc1ccccc1CN1CCN(Cc2cc(Br)ccc2O)CC1 | 2.48 | 1.29 |
| CN(C)CCN(C)C(=O)c1cccc(OC2CCN(Cc3ccccc3O)CC2)c1 | 4.8 | 5.14 |
| OC(CN1CCN(Cc2ccccc2)CC1)Cn1c2ccccc2c2ccccc21 (stereo unspecified) | 2.64 | 1.15 |
| C[n+]1ccccc1/C=C1\Sc2ccccc2N1CCO | 5.49 | 3.1 |
| CCc1ccc(NC(=O)CN2N=NC3C(=O)N(c4ccc(Br)cc4)C(=O)C32)cc1 (stereo unspecified) | > 15 | > 15 |
| CCOc1cc(O)c(-c2[nH]nc(C)c2Oc2ccc(F)cc2)cc1CC | 2.51 | 3.55 |
| Cc1ccc(Cn2c(=N)n(CC(=O)c3ccc([N+](=O)[O-])cc3)c3ccccc32)cc1 | 7.64 | 10.4 |
| CCCC(=O)N1CCN(c2ccc(NC(=O)c3cccc([N+](=O)[O-])c3)cc2Cl)CC1 | > 15 | > 15 |
| CC[n+]1c(C=C2C=CN(C)C=C2)ccc2cc(OC)ccc21 | > 15 | 2.05 |
| C=CCn1c(C)c(C=C2C(=O)NC(=S)NC2=O)c2ccccc21 | 1.69 | 1.4 |

| SMILES | EC50 [1] [µM] | EC50 [2] [µM] |
| --- | --- | --- |
| CCOc1cc(/C=C(\C#N)c2nn(CCO)c(N)c2C#N)cc(I)c1OC | > 15 | > 15 |
| COc1cccc(C(=O)NC(NC(=S)Nc2ccccc2Cl)C(Cl)(Cl)Cl)c1 (stereo unspecified) | 2.67 | 5.39 |
| CC1CC(C)CN(C(=O)c2ccc(Cl)cc2Cl)C1 (stereo unspecified) | 1.32 | > 15 |
| COc1ccccc1CCN1C(=O)CCC1CCNCCOc1ccccc1 (stereo unspecified) | > 15 | > 15 |
| CCC(C(=O)NCc1ccccc1Cl)n1c2ccccc2c2nc(=O)cc(C)n21 (stereo unspecified) | > 15 | > 15 |
| O=C(NCc1ccccc1)C1CCC(Cn2c(=O)c3ccccc3n(Cc3cccc(F)c3)c2=O)CC1 (stereo unspecified) | > 15 | > 15 |
| COCCn1/c(=N/C(=O)COc2ccccc2)sc2cc(OC)ccc21 | > 15 | > 15 |
| CN(Cc1cccc(OCCNC(=O)c2ccc3c(c2)OCO3)c1)Cc1cccc2cccnc12 | > 15 | > 15 |
| CCOC(=O)c1c(N)n[nH]c1O | > 15 | > 15 |
| CCN(CC)c1ccc(C(NC(=O)C(C)C)c2ccc3cccnc3c2O)cc1 (stereo unspecified) | 4.85 | 5.82 |
| CC(C)(C)CNc1cc(N2CCN(C(=O)c3cccs3)CC2)ccc1[N+](=O)[O-] | 4.53 | 4.76 |
| O=C(Nc1ccc2oc(-c3ccccc3)nc2c1)C(Cl)(Cl)Cl | > 15 | 4.52 |
| COc1cccc(C(=O)Nc2ccc(-c3nnc(-c4ccco4)o3)cc2)c1 | > 15 | > 15 |
| CCc1ccc(Oc2c(C(F)(F)F)oc3c(CN4CCCCC4)c(O)ccc3c2=O)cc1 | 1.61 | 0.558 |
| Cc1ccc(NC(=O)c2csc3c2CCCCC3)c(C)c1 | 1.77 | > 15 |
| COc1cccc(C(=O)NC(c2ccc(C)cc2)c2cc(Cl)c3cccnc3c2O)c1 (stereo unspecified) | > 15 | > 15 |
| CCCN1CCC(NC(=S)Nc2ccc([N+](=O)[O-])cc2)CC1 | > 15 | > 15 |
| CN(C)CCNc1c2c(nc3ccccc13)CCC2 | 3.96 | > 15 |
| COc1cccc(NC(=O)Cn2c3ccccc3c(=O)c3cc(Cl)ccc32)c1 | > 15 | 5.45 |
| COc1cc(/C=C(\C#N)c2nc3ccccc3[nH]2)cc(Br)c1OCC#N | > 15 | > 15 |
| Cc1ccc2ccc(C(Nc3ccccn3)c3cccc(Cl)c3)c(O)c2n1 (stereo unspecified) | 4.13 | 3.66 |
